Test system: mouse model for coronary infarction
Test: hES-derived cardiomyocyte transplant in mouse model for coronary infarction, echocardiography
Assay type: in vivo
Conditions: for cardiac improvement upon grafting with hES derived cardiomyocytes (measured by echocardiography): grafts pre-treated with the agent, animals optionally pre-conditioned with allopurinol and uricase, result in words
Procedure: Cardiomyocytes were differentiated from human embryonic stem (hES) cells and purified by density gradient centrifugation on Percoll™, according to established methods (WO 03/006950). They were adapted to decrease uric acid production upon engraftment by culturing for 24 hours in standard differentiation medium (containing 20% FBS) to which had been added 50 μg/mL allopurinol, or 0.5 Units/mL human recombinant erythropoietin (EPO). Alternatively, the cells were heat shocked in standard differentiation medium (20% FBS) by incubating at 43° C. for 45 minutes, and then transferring to a 37° C. incubator 24 h prior to harvest.
Recipient mice were prepared to decrease uric acid production by the engrafted cells by daily injection of 800 μg allopurinol and/or 10 μg uricase intramuscularly for each of the 3 days before transplant.
The transplant experiments were performed using a mouse model for coronary infarction in an external research laboratory under a Research Agreement with Geron Corporation. The left anterior descending artery was ligated as follows. Mice were anesthetized in an isoflurane inhalation chamber and received intraperitoneal injection of Ketanest/Xylazine (50 mg/kg). They were then intubated and ventilated for the entire surgical procedure. Rectal temperature was maintained at 37° C. by a thermostatically regulated heating pad. One ligation with a 9.0 silk stitch was performed on the proximal 2 mm portion of the artery.
Using a 25 g needle, 0.25-2×10^6 cells (suspended in differentiation medium without serum) were injected into the demarcated area. Immediately afterwards, a chest tube (16 G Angio-cath) was inserted and the chest was closed in layers. Ventilation was maintained until there was sufficient spontaneous breathing, and extubation followed. The ventricular diameter was measured after three weeks by echocardiography. Fractional shortening ([…])≡[(diameter at diastole minus diameter at systole)÷(diameter at diastole)].

Structure (SMILES) | cardiac improvement upon grafting with hES derived cardiomyocytes (measured by echocardiography) | Fractional shortening at 3 weeks post-treatment (infarcted mice (left anterior descending artery ligation), 0.25-2x10^6 cells injected into infarct area, echocardiography after three weeks)
Oc1ncnc2[nH]ncc12 [allopurinol] | considerably enhanced | 24%
CC(C)Cc1ccc(C(C)C(=O)O)cc1 (stereo not drawn) [ibuprophen] | considerably enhanced | –

Reference: patent US20050142121A1, “System for improving acceptance of tissue grafts made from embryonic stem cells” (priority 2003, published 2005)
